The values below come from patent publication US20230096145A1, “METHODS OF CONTROLLING OR PREVENTING INFESTATION OF PLANTS BY THE PHYTOPATHOGENIC MICROORGANISM CORYNESPORA CASSIICOLA” (SYNGENTA CROP PROTECTION AG, priority 2020, published 2023).

What is called inhibition is the relative decrease from the control value, in per cent. Low readings indicate a response near the control, high ones a response far below the control.

The structures appear in SMILES notation.

The test system of this assay is Corynespora cassiicola. The experiment in a line: Corynespora cassiicola liquid culture growth inhibition (microtiter plate, PDB). As to conditions: compared to untreated control, photometric at 620 nm after 3-4 days at 24 C. The format is cell-based. The procedure:
Conidia of the fungus from cryogenic storage were directly mixed into nutrient broth (PDB potato dextrose broth). A DMSO solution of the test compounds was placed into a microtiter plate (96-well format) and the nutrient broth containing the fungal spores was added to it. The test plates were incubated at 24 C and the inhibition of growth (% control of Corynespora cassiicola) was determined photometrically after 3-4 days at 620 nm. The activity of a compound is derived by comparing the inhibition of growth in the treated test solution to the growth in the untreated check. The concentration of the compounds was 6.7, 2.2, 0.74, 0.25, 0.082 and 0.027 ppm.
For `Cc1ccc2c(C3=NC(C)(C)C(F)(F)c4ccccc43)cnn2c1C` [Compound 1], the inhibition at 6.7 ppm was no less than 70%. In the case of `Cc1cccc2c(C3=NC(C)(C)C(F)(F)c4ccccc43)cnn12` [Compound 2] it was no less than 70%; in that of `Cc1ccc2c(C3=NC(C)(C)C(F)(F)c4ccccc43)cnn2c1` [Compound 3], no less than 70%; in that of `Cc1ccc2c(C3=NC(C)(C)C(F)(F)c4c(F)cccc43)cnn2c1C` [Compound 4], no less than 70%. `Cc1ccc2c(C3=NC(C)(C)C(F)(F)c4cc(F)ccc43)cnn2c1C` [Compound 5] showed an inhibition at 6.7 ppm of no less than 70%.
